From US20040157913A1, “Kappa opiate agonists for the treatment of bladder diseases” (priority 2001, published 2004) come the findings set out here.

Holding throughout (type): in vivo
Experiment [1] in a line: Urine excretion in rats with increased urine excretion provoked by intraperitoneal saline (Lipschitz model). The note with it: rats fasted overnight, 100 ml/kg physiological saline i.p., urine collected over 6 hours, dose 100 mg/kg; increase as a function of dose. As for the experimental part: (§1) A model for measuring the effect on urine excretion is described in Lipschitz et al., J. Pharmacol. Exp. Ther. 1943; 79: 97-110. The substance to be investigated is given to rats who had previously been denied food overnight while being given free access to water. Increased urine excretion is provoked by simultaneous intraperitoneal injection of 100 ml/kg of physiological saline solution. Immediately after administration of the substance, the bladder was emptied by gentle massage of the abdomen above the bladder. The rats are subsequently kept in metabolism cages in which the urine is collected over a period of 6 hours.

A short description of experiment [2]: Urine excretion in normal rats (without induction of increased urine excretion). The note with it: no saline induction, dose 30 mg/kg po, increase as a function of dose. As for the experimental part: as §1
The effect on urine excretion in normal rats is tested analogously (i.e. without induction of increased urine excretion, see above). N-Methyl-N-[(1S)-1-phenyl-2-((3S)-3-hydroxypyrrolidin-1-yl)ethyl]-2,2-diphenylacetamide increases urine excretion as a function of dose, with 5.5 times the amount of urine being excreted at only 30 mg/kg po.

The subject of experiment [3] is irritable bladder in female apes. The experiment can be described thus: Animal model for irritable bladder induced by direct infusion of acetone into the bladder (Ghoniem et al.). As to conditions: doses of 3, 10 and 30 mg/kg. As for the experimental part: The classical animal model for irritable bladder is described in Ghoniem et al., Neurourol. Urodyn. 1995; 14: 657-65. In female apes, irritable bladder is induced by direct infusion of acetone into the bladder. The animals are kept in metabolism cages designed for continuous monitoring of miction (urination) of the animals. The frequency, emptying volumes and flow rate of the urine are measured continuously via urine flow meters. […] Furthermore, considerable changes in bladder physiology are observed in the first week after acetone infusion: the bladder performance, measured in ml/cm, drops by almost 95%. The emptying behaviour also changes considerably, with the frequency of emptying increasing greatly with the picture of frequent dribbling and at the same time with an emptying volume reduced by about 70%. […] These changes in behaviour observed in apes are consistent with the clinical picture of considerable discomfort and pain.

For `CN(C(=O)C(c1ccccc1)c1ccccc1)[C@H](CN1CC[C@H](O)C1)c1ccccc1` [N-methyl-N-[(1S)-1-phenyl-2-((3S)-3-hydroxypyrrolidin-1-yl)ethyl]-2,2-diphenylacetamide], the results for the “amount of urine excreted (multiple)” value in experiment [1] and in experiment [2] were “twice the amount of urine” and 5.5 times, respectively. For the same compound, in experiment [3], the “effect on bladder function” value is “normalises bladder function in a dose-dependent manner”.
